Data set [1] concerns Ramos. Description: MTS cytotoxicity assay, Ramos. The note with it: Homo sapiens, 24 h. In general terms: Tetrazolium assays rely on reduction of a dye to a coloured formazan, in cell work by metabolically active cells.
The subject of data set [2] is L1210. The experiment in a line: MTS cytotoxicity assay, L1210. The note with it: Mus musculus, L1210, 24 h.
In data set [3] the test system is P388. Description: MTS cytotoxicity assay, P388. The note with it: Mus musculus, P388, 24 h.
Data set [4] deals with Raji. The experiment in a line: MTS cytotoxicity assay, Raji. The note with it: Homo sapiens, 24 h.
In data set [5] the test system is U118MG. Description: MTS cytotoxicity assay, U118MG. The data set is classed as cell-based. The note with it: Homo sapiens, U-118-MG, normoxic, 24 h exposure.
For data set [6], the system named is Namalwa. Description: MTS cytotoxicity assay, Namalwa. The note with it: Homo sapiens, 24 h.
Data set [7] concerns MOLT-4. The experiment in a line: MTS cytotoxicity assay, MOLT-4. The note with it: Homo sapiens, MOLT-4, 24 h.
Data set [8] deals with KG1a. Description: MTS cytotoxicity assay, KG1a. The note with it: Homo sapiens, KG-1a, 24 h.
Data set [9] concerns RPMI8226/Dox. Description: MTS cytotoxicity assay, RPMI8226/Dox. The note with it: Homo sapiens, RPMI-8226, 24 h.
Data set [10] concerns RPMI8226. Description: MTS cytotoxicity assay, RPMI8226. The note with it: Homo sapiens, RPMI-8226, 24 h.
For data set [11], the system named is U87MG. Description: MTS cytotoxicity assay, U87MG. The data set is classed as cell-based. The note with it: Homo sapiens, U-87 MG, normoxic, 24 h exposure.
Data set [12] relates to HL-60. The experiment in a line: MTS cytotoxicity assay, HL-60. The note with it: Homo sapiens, HL-60, 24 h.
The test system of data set [13] is Daudi. The experiment in a line: MTS cytotoxicity assay, Daudi. The note with it: Homo sapiens, 24 h.
In data set [14] the test system is U251. Description: MTS cytotoxicity assay, U251. The note with it: Homo sapiens, U-251, normoxic, 24 h exposure. The data set is classed as cell-based.
Data set [15] deals with L5178Y. The experiment in a line: MTS cytotoxicity assay, L5178Y. The note with it: Mus musculus, 24 h.
Data set [16] concerns KB. The experiment in a line: MTS cytotoxicity assay, KB. The data set is classed as cell-based. The note with it: Homo sapiens, normoxic, 24 h exposure.
The subject of data set [17] is FaDu. The experiment in a line: MTS cytotoxicity assay, FaDu. The data set is classed as cell-based. The note with it: Homo sapiens, normoxic, 24 h exposure.
The subject of data set [18] is KB-3. The experiment in a line: MTS cytotoxicity assay, KB-3. The data set is classed as cell-based. The note with it: KB3; KB-3 (radiation-resistant); normoxic; 24 h exposure.
For data set [19], the system named is Hep3B2.1-7. Description: MTS cytotoxicity assay, Hep3B2.1-7. The data set is classed as cell-based. The note with it: normoxic, 24 h exposure.
In data set [20] the test system is BXPC-3. The experiment in a line: MTS cytotoxicity assay, BXPC-3. The note with it: Homo sapiens, BXPC-3, 24 h.
For data set [21], the system named is human BxPC-3 pancreatic carcinoma. Description: sc BxPC-3 pancreatic xenograft, tumor growth inhibition. The data set is classed as in vivo, nude mice. The note with it: BxPC-3 sc. The procedure: Shown are the mean (±SEM) tumor volumes measured from treatment and control groups following tumor challenge. The study was terminated when tumors from the vehicle-treated group reached an average of approximately 2 grams (day 27) and the % TGI was calculated as defined in the text. […] Animals were actively sacrificed when they became moribund from excessive tumor burden.

The subject of data set [22] is MiaPaCa. The experiment in a line: MTS cytotoxicity assay, MiaPaCa. The note with it: Homo sapiens, MIA PaCa-2, 24 h.
The subject of data set [23] is human Panc-1 tumors. The experiment in a line: sc Panc-1 pancreatic xenograft, tumor growth delay. The data set is classed as in vivo, nude mice. The note with it: Panc-1 sc, gemcitabine treatment. The procedure: Mice were actively sacrificed as a cancer death when their tumors reached 1200 mm^3. Shown are Kaplan-Meier plots summarizing the percentage of the animals remaining in the study as a function of time following tumor inoculation. Treatment outcome was determined from TGD, defined as the increase in median TTE in a treatment group as compared to the control group.
In each case, a range of AQ4N dose schedules were evaluated to determine the optimum dosage for efficacy as a single agent.
In the Panc-1 model, the endpoint of the study was pre-defined to be when tumors reached 1200 mm^3 and treatment outcome was determined from tumor growth delay (TGD). TGD is defined as the increase in median time to endpoint (TTE) in a treatment group as compared to the control group, and expressed in days or as a percentage of the median TTE vs. the control group.

For data set [24], the system named is Panc-1. The experiment in a line: MTS cytotoxicity assay, Panc-1. The note with it: Homo sapiens, PANC-1, 24 h.
Data set [25] concerns BxPC-3 pancreatic carcinoma (orthotopic). The experiment in a line: Orthotopic BxPC-3 pancreatic carcinoma model, survival. The note with it: BxPC-3 ot; gemcitabine treatment; P=0.04.
For data set [26], the system named is LoVo. Description: MTS cytotoxicity assay, LoVo. The data set is classed as cell-based. The note with it: normoxic, 24 h exposure.
The subject of data set [27] is HT-29. Description: MTS cytotoxicity assay, HT-29. The data set is classed as cell-based. The note with it: normoxic, 24 h exposure.
In data set [28] the test system is HCT116. The experiment in a line: MTS cytotoxicity assay, HCT116. The data set is classed as cell-based. The note with it: 24 h exposure.
The subject of data set [29] is LS174T. The experiment in a line: MTS cytotoxicity assay, LS174T. The data set is classed as cell-based. The note with it: normoxic, 24 h exposure.
The conditions of data set [30]: mouse, in vivo.
For data set [31], the system named is ARH177. Description: MTS cytotoxicity assay, ARH177. The note with it: 24 h.
The subject of data set [32] is bladder cancer cell lines. The note with it: previous data; cited from earlier work.
The subject of data set [33] is K562. Description: MTS cytotoxicity assay, K562. The note with it: Homo sapiens, K562, 24 h.
Data set [34] deals with CCRF-CEM/VLB. The experiment in a line: MTS cytotoxicity assay, CCRF-CEM/VLB. The note with it: Homo sapiens, 24 h.
For data set [35] the following is noted: single 20 mg/kg dose of AQ4N; previous studies; cited from earlier work.
For data set [36], the system named is A375-SM. Description: MTS cytotoxicity assay, A375-SM. The data set is classed as cell-based, mouse. The note with it: Homo sapiens, normoxic, 24 h exposure.
Data set [37] has as its system B16-F10. Description: MTS cytotoxicity assay, B16-F10. The data set is classed as cell-based, human. The note with it: Mus musculus, normoxic, 24 h exposure.
For data set [38], the system named is MO59K cells (glioblastoma). The experiment in a line: Colony formation assay, combination with temozolomide and radiation.
For data set [39], the system named is CCRF-CEM. Description: MTS cytotoxicity assay, CCRF-CEM. The note with it: Homo sapiens, 24 h.

As usually defined, the IC50 is the concentration needed to halve the response being measured. A high value points to lower potency. For `COc1cccc2c1C(=O)c1c(O)c3c(c(O)c1C2=O)C[C@@](O)(C(=O)CO)C[C@@H]3O[C@H]1C[C@H](N)[C@H](O)[C@H](C)O1` [Dox, doxorubicin, reference compound], the IC50 worked out at 0.0018 µM in data set [1]; 0.05 µM in [2]; 0.1 µM in data set [3]; 0.0009 µM in [4]; 0.03 µM in data set [5]; 0.0074 µM in data set [6]. Also, the concentration for half-maximal inhibition (IC50) in data set [7] worked out at 0.0075 µM; in data set [8], 0.6 µM; in [9], 54.7 µM; in data set [10], 0.1 µM; in data set [11], 0.4 µM; in data set [12], 0.1 µM. The values for the IC50 in data set [13], in [14] and in [15] were 0.0005 µM, 0.03 µM and 0.05 µM, respectively.
Consider `CC(=O)O[C@H]1C(=O)[C@@]2(C)[C@H]([C@H](OC(=O)c3ccccc3)[C@]3(O)C[C@H](OC(=O)[C@H](O)[C@@H](NC(=O)c4ccccc4)c4ccccc4)C(C)=C1C3(C)C)[C@]1(OC(C)=O)CO[C@@H]1C[C@@H]2O` [Taxol, reference compound], for which the concentration for half-maximal inhibition (IC50) in data set [16] was 2 µM; in data set [17], 6.5 µM; in [18] it was 19.1 µM; in [19], 13.7 µM.
A word on the TGI: it is the reduction of tumour growth relative to the control group. In the case of `Nc1ccn([C@@H]2O[C@H](CO)[C@@H](O)C2(F)F)c(=O)n1` [gemcitabine], the half-maximal inhibitory concentration (IC50) turned out to be 0.0595 µM in [20], 0.023 µM in [22] and 1.7 µM in [24]. In addition, in [21] (gemcitabine treatment, ~day 27), the tumour growth inhibition (TGI) amounted to 51%. The “TGI in comparison to vehicle-treated groups” value in [21] (single-agent, p<0.001, FIG. 20A) is given as “significant TGI”. Moreover, in data set [23], the “TGD as percentage of median TTE vs control” value was 19%. Also, the TTE in [23] (endpoint 1200 mm^3) turned out to be 34.2 days. Moreover, the “TGD (tumor growth delay)” value in [23] (non-significant) is 5.4 days. This molecule yielded a median survival in data set [25] of 40 days.
Consider `CCc1c2c(nc3ccc(O)cc13)-c1cc3c(c(=O)n1C2)COC(=O)[C@]3(O)CC` [SN38, 7-ethyl-10-hydro-camptothecin, reference compound], for which the IC50 in [26] was determined as 0.0006 µM; in data set [27] it was 0.0651 µM; in data set [28] (normoxic), 0.0484 µM; in [29], 0.0026 µM.
Regarding `CN(C)CCNc1ccc(NCC[N+](C)(C)[O-])c2c1C(=O)c1c(O)ccc(O)c1C2=O` [AQ4M], the “plasma level at 2 hr” value (240 mg/kg AQ4N dose) is recorded as “only trace amounts”. Also, the “metabolite detection in plasma” value (any AQ4N dose or time point) is given as “undetectable”. Also, in data set [30], the “tumor level by 8 h” value is “minimal levels by 8 h for most doses” and the “tumor level vs dose at 2 hr” value is “approximately linear with increasing dose”.
With `CN(C)CCNc1ccc(NCCN(C)C)c2c1C(=O)c1c(O)ccc(O)c1C2=O` [AQ4, 1,4-bis{[2-(dimethylamino)ethyl]amino}-5,8-dihydroxyanthracene-9,10-dione], the IC50 in data set [1] came out at 0.008 µM; in data set [31] it was 0.2 µM; in [20], 1.6 µM; in [33], 0.4 µM; in [2], 0.0012 µM; in data set [26] (Homo sapiens), 0.21 µM. In addition, the 50% inhibitory concentration (IC50) in [3] came to 0.01 µM; in [4] it was 0.2 µM; in [22], 1.6 µM; in data set [24] it was 0.4 µM; in data set [16] it was 0.6 µM; in data set [27] (Homo sapiens) it was 0.7 µM. Also, the IC50 in data set [5] was 1.3 µM; in data set [34], 0.34 µM; in [6], 0.0002 µM; in [7], 0.002 µM; in data set [8], 0.05 µM; in [9], 1.1 µM. Further, the IC50 turned out to be 0.2 µM in data set [10]; 3.3 µM in data set [36]; 0.9 µM in [11]; 0.02 µM in [37]; 0.3 µM in data set [17]; 3.9 µM in data set [28] (Homo sapiens, HCT-116, normoxic). Moreover, the 50% inhibitory concentration (IC50) in data set [18] is 3.3 µM; in data set [12], 0.01 µM; in data set [13], 0.0046 µM; in data set [39] it was 0.62 µM; in data set [14], 0.6 µM; in data set [15], 0.03 µM. The IC50 amounted to 0.8 µM in [19] and 0.95 µM in data set [29] (Homo sapiens). In addition, in [32], the interaction with radiation result is “additive interactions”. Further, the “tumor accumulation vs dose” value in data set [30] (240 mg/kg) is “dose-dependent fashion”. The “percent of near maximal tumor levels after 2 hr post-infusion” value in data set [30] (2 h) is reported as 55-85%. In addition, the “percent of conversion occurring by 8 hr” value in data set [30] (8 h) is given as 80-100%. Further, the “time AQ4 can be detected in tumor tissues” value in data set [35] is “at least 2 weeks”. In addition, in data set [38] (48 hr combined treatment, 1.5 Gy at 24 hr, FIG. 24), the “combined cytotoxic effect with temozolomide and radiation” value is “additive and synergistic cytotoxic effects”. In data set [38] (48 hr temozolomide, 10-day colony formation, FIG. 23), the “combined cytotoxic effect with temozolomide” value was “additive and synergistic cytotoxic effects”.
As to `CCC1=C[C@@H]2CN(C1)Cc1c([nH]c3ccccc13)[C@@](C(=O)OC)(c1cc3c(cc1OC)N(C)[C@H]1[C@@](O)(C(=O)OC)[C@H](OC(C)=O)[C@]4(CC)C=CCN5CC[C@]31[C@@H]54)C2` [VLB, vinorelbine, reference compound], the IC50 was determined as 1040 µM in data set [34] and 0.01 µM in [39].
